For experiment [1], the system named is calicivirus diarrhea. Briefly: Calicivirus diarrhea in breastfed infants by milk oligosaccharide level. Particulars: 93 nursing children consuming milk with high amounts; Poisson regression, P=0.012. The class given is in vivo, human. Here is the method:
Milk samples were obtained weeks 2-5 postpartum from 93 Mexican mothers; the mothers and infants were followed from birth up to 2 yr postpartum. The clinical histories of the infants were recorded prospectively, and concentrations of individual oligosaccharides in these milk samples were measured. The most common oligosaccharides in maternal milk were those that were fucosylated, comprising 73% (50%-92%) of total oligosaccharide. Of these, 2′FL, the oligosaccharide homolog of the Lewis H-2 epitope, was the most common in the milks of all mothers. The mean concentration of 2′FL in milk was 3854±108 nmol/mL (34% of total fucosylated oligosaccharides), but varied greatly among mothers according to their Lewis blood group type.
Thus, human milk containing high levels of specific oligosaccharides are associated with decreased risk of pathogen-specific diarrhea and diarrhea overall. […] Because both the oligosaccharide and the high-molecular-weight glycans that share the same glycan epitope are synthesized by the same fucosyltransferase, the relationship between the oligosaccharide expression in milk and decreased risk in the infant reflects the synthetic capacity of the mother for both the free oligosaccharide and the homologous glycan. Specific human milk oligosaccharides protect breastfed children from disease by inhibiting binding of pathogens to the child's intestinal receptors.

For experiment [2], the system named is Campylobacter jejuni. In words: C. jejuni binding to CHO cells transfected with a human α(1,2)-fucosyltransferase gene. The class given is cell-based. The following applies: CHO cells overexpressing H-2 antigen.

Consider `CC(=O)N[C@H]1[C@H](O[C@H]2[C@@H](O)[C@@H](CO)O[C@@H](O[C@H]3[C@H](O)[C@@H](O)C(O)O[C@@H]3CO)[C@@H]2O)O[C@H](CO)[C@@H](O[C@@H]2O[C@@H](C)[C@@H](O)[C@@H](O)[C@@H]2O)[C@@H]1O[C@@H]1O[C@H](CO)[C@H](O)[C@H](O)[C@H]1O[C@@H]1O[C@@H](C)[C@@H](O)[C@@H](O)[C@@H]1O` (some centres unmarked) [LDFH-I], for which the “protection against calicivirus diarrhea” value in experiment [1] was “associated with protection”.

B1: UEA I: ligand (lectin) that binds to H-2 (protein, UniProt P22972 1-243, looked up)
Anti-H(O) lectin 1: SDDLSFKFKNFSQNGKDLSFQGDASVIETGVLQLNKVGNNLPDETGGIARYIAPIHIWNCNTGEVASFITSFSFFMETSANPKAATDGLTFFLAPPDSPLRRAGGYFGLFEDTKDNDSSYQTVAVEFDTIGSPVNFDDPGFPHIGIDVNRVKSINAERWNKRYGLNNVANVEIIYEASSKTLTASLTYPSDQTSISVTSIVDLKEILPEWVSVGFSGGTYIGRQATHEVLNWYFTSNLINTNS
As to B1, in experiment [2], the “inhibition of C. jejuni binding to transfected CHO cells” value is given as “inhibited”.

The values above are taken from patent US20100120701A1, “Compositions and Methods For Engineering Probiotic Yeast” (Glycosyn, Inc., priority 2008, published 2010).
